Values quoted from earlier work, collected in patent EP0788741B1 (priority 1996, dated 1997).

Tested on: Australorbis Glabratus
Settings: Public Health Report, Vol. 82, No. 9; cited from earlier work

Structure (SMILES)	concentration effective to kill Puerto Rican snails [ppm]
CCCCCCCCCCCCCN(C)C.CCCCCCCCCCCCCN(C)C.O=C(O)C1C2CCC(O2)C1C(=O)O [di (N,N-dimethyltridecylamine) salt of Endothall]	5
CCCCCCCCCCCCCN(C)C.O=C(O)C1C2CCC(O2)C1C(=O)O [mono (N,N-dimethyltridecylamine) salt of Endothall]	10
